# Test system: phenylephrine-precontracted aortic rings from rats
# Assay: Vasodilatory influence in isolated rat aortic ring preparations
# Settings: first set; 1 microM
# Procedure: The aim of the experiments was to test for the vasodilatory influence of SNO-HES in isolated rat aortic ring preparations. Isolated aortic rings from rats were precontracted by phenylephrine. SNO-HES-induced relaxations were determined after defined incubation periods. In order to completely relax the aorta and to define the 100% relaxation level, papaverine was applied at the end of an experiment. Two sets of experiments were performed:
# Aortic ring preparations from adult rats (male, Lewis, 278-307 g; Janvier, St Berthevin Cedex, France) were used to perform the experiments.
# All HES derivatives were supplied by Fresenius-Kabi Deutschland GmbH. SNO-HES derivatives CNO1 and CNO8 (both prepared according to GP3, table 8) were tested alongside with their precursor SH-HES (D31, prepared according to GP2.1 and GP2.2, table 6) and the unmodified HES (HES17, table 1). The first set of experiments was performed with SNO-HES derivative CNO1, the second set with CNO8.
# Physiological solution contained (in mM) NaCl 120, KCl 5.5, MgSO4 1.2, KH2PO4 1.2, CaCl2 2.5, NaHCO3 25 and glucose 11. The solution was maintained at 37° C. and gassed with carbogen (95% O2+5% CO2 (v/v)). Phenylephrine (batch 050M1663) and papaverine (batch 010M1565) purchased from Sigma (Munich, Germany) were dissolved in distilled water to prepare stocks of 1 mM and 50 mM, respectively. […]
smiles,measurement,value
"N[C@@H](CCC(=O)N[C@@H](CSN=O)C(=O)NCC(=O)O)C(=O)O [GSNO, S-nitrosogluthatione]",Relaxation of phenylephrine-contracted aortic rings (in words),immediately and completely relaxed

# Reference: US20140073602A9, “NITRIC OXIDE DELIVERING HYDROXYALKYL STARCH DERIVATIVES” (FRESENIUS KABI DEUTSCHLAND GMBH, priority 2010, published 2014)
